For one assay, the system named is mold. As to the kind of experiment: Dosing of micro-mixed emulsion to paper pulp slurry tank: mold proofing of paper. The settings on record: surfactant-free emulsion from 50 wt. % solution in benzyl alcohol (56 mL/minute) micro-mixed with water, charged to 10,000 liter pulp slurry tank. On the procedure:
A 10,000 liter pulp slurry tank has a continuous throughput averaging 6,600 liters/minute. A 50 wt. % solution of 4,5-dichloro-2-octyl-3-isothiazolone in benzyl alcohol is fed to an array of slit shaped interdigital micro-mixers at a feed rate of 56 mL/minute, combined with water fed to the micro-mixer at a feed rate of 600 mL/minute. The water contains no surfactants. The resulting emulsion exiting the micro-mixer is directly charged to water in the pulp slurry tank, where it is effectively distributed and re-circulated throughout the tank water. […] Focusing micro-mixers also produce similar results as compared to the micro-mixers described above.

In another assay the test system is algae. As to the kind of experiment: Dosing of micro-mixed emulsion to cooling tower water: control of algae. The settings on record: 3 ppm isothiazolone in cooling water of cooling tower. On the procedure: A 50 wt. % solution of 4,5-dichloro-2-octyl-3-isothiazolone in benzyl alcohol is fed to an array of slit shaped interdigital micro-mixers at a feed rate of 50 mL/minute, combined with water fed to the micro-mixer at a feed rate of 600 mL/minute. The water contains no surfactants. The resulting emulsion exiting the micro-mixer it is directly dosed to cooling water in a 50,000 gallon […] cooling tower, where is effectively distributed and re-circulated throughout the cooling water. After about 20 minutes, the isothiazolone concentration in the cooling water reaches a desired concentration of 3 ppm and the emulsion feed is stopped. […] Focusing micro-mixers also produce similar results as compared to the micro-mixers described above. Melted 2-octyl-3-isothiazolone as a neat liquid is fed to an array of slit shaped interdigital micro-mixers at a feed rate of 50 mL/minute, combined with water fed to the micro-mixer at a feed rate of 600 mL/minute. The water contains no surfactants and solvents. The resulting emulsion exiting the micro-mixer it is directly dosed to cooling water in a 50,000 gallon […] cooling tower, where is effectively distributed and re-circulated throughout the cooling water. After about 20 minutes, the isothiazolone concentration in the cooling water reaches a desired concentration of 3 ppm and the emulsion feed is stopped. […]

SMILES strings stand for the structures.

`CCCCCCCCn1sc(Cl)c(Cl)c1=O` [4,5-dichloro-2-octyl-3-isothiazolone]: the “mold proofing in paper prepared from treated pulp” value in the assay with mold is “effective mold proofing”. Besides, the “control of algae in cooling water” value in the assay on algae (surfactant-free emulsion from 50 wt. % solution in benzyl alcohol micro-mixed with water) was “Effective control of algae”.
Consider `CCCCCCCCn1sccc1=O` [2-octyl-3-isothiazolone], for which the “control of algae in cooling water” value with algae (surfactant- and solvent-free emulsion from melted neat liquid micro-mixed with water) was “Effective control of algae”.
